# Measured values taken from paper PMC12312563, “Structures of Listeria monocytogenes MenD in ThDP-bound and in-crystallo captured intermediate I-bound forms” (Acta Crystallographica Section F: Structural Biology …, 2025).
# T1: LmoMenD (2-succinyl-5-enolpyruvyl-6-hydroxy-3-cyclohexene-1-carboxylate synthase, SEPHCHC synthase) (Listeria monocytogenes, UniProt A0A0H3GD77)
# T1 sequence (A0A0H3GD77 1-580): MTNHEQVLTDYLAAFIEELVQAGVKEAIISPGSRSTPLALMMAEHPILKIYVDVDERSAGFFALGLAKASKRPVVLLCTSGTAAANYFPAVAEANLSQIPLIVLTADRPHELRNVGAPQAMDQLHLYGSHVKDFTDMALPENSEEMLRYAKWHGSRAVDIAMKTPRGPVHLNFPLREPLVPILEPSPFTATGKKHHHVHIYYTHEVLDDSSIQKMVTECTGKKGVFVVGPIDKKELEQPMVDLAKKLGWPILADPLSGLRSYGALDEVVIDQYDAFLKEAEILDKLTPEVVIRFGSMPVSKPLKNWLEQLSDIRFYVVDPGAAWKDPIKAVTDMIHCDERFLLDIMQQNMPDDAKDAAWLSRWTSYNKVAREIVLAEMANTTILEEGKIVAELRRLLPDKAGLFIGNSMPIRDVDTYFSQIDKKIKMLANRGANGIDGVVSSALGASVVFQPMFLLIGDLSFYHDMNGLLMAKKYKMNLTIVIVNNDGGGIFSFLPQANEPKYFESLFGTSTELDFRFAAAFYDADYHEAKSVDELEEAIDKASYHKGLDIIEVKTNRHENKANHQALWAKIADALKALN
# B1: Listeria monocytogenes MenD (2-succinyl-5-enolpyruvyl-6-hydroxy-3-cyclohexene-1-carboxylate (SEPHCHC) synthase) (enzyme, Listeria monocytogenes (strain 10403s))
# chain: GAMVTNHEQVLTDYLAAFIEELVQAGVKEAIISPGSRSTPLALMMAEHPILKIYVDVDERSAGFFALGLAKASKRPVVLLCTSGTAAANYFPAVAEANLSQIPLIVLTADRPHELRNVGAPQAMDQLHLYGSHVKDFTDMALPENSEEMLRYAKWHGSRAVDIAMKTPRGPVHLNFPLREPLVPILEPSPFTATGKKHHHVHIYYTHEVLDDSSIQKMVTECTGKKGVFVVGPIDKKELEQPMVDLAKKLGWPILADPLSGLRSYGALDEVVIDQYDAFLKEAEILDKLTPEVVIRFGSMPVSKPLKNWLEQLSDIRFYVVDPGAAWKDPIKAVTDMIHCDERFLLDIMQQNMPDDAKDAAWLSRWTSYNKVAREIVLAEMANTTILEEGKIVAELRRLLPDKAGLFIGNSMPIRDVDTYFSQIDKKIKMLANRGANGIDGVVSSALGASVVFQPMFLLIGDLSFYHDMNGLLMAKKYKMNLTIVIVNNDGGGIFSFLPQANEPKYFESLFGTSTELDFRFAAAFYDADYHEAKSVDELEEAIDKASYHKGLDIIEVKTNRHENKANHQALWAKIADALKALN
# notes: MenD, Listeria monocytogenes strain 10403s, menD gene cloned from genomic DNA with printed primers that run from the start to the stop codon; Untagged protein after rTEV cleavage; The forward primer reads ATG GTG ACA..., so the MV at the start may hold one residue more than the natural protein (surmised from the residue numbering); also called LmoMenD; source: E. coli BL21 (DE3), purified …
# Columns and labels:
# [1] = target: T1, LmoMenD (2-succinyl-5-enolpyruvyl-6-hydroxy-3-cyclohexene-1-carboxylate synthase, SEPHCHC synthase); design: gene menD
# [2] = target: T1, LmoMenD (2-succinyl-5-enolpyruvyl-6-hydroxy-3-cyclohexene-1-carboxylate synthase, SEPHCHC synthase); assay: UV/Vis assay of isochorismate consumption; […] decrease of activity at […]; assay type: biochemical; design: gene menD; full-length LmoMenD, strain 10403s, tag removed by TEV cleavage
# [3] = target: the molecule itself; assay: crystal structure; LmoMenD with ThDP and Mg2+ (PDB 9e9b) or with intermediate I after a 2-oxoglutarate soak (PDB 9mnn); space group P6(4)22, one molecule in the asymmetric unit, tetramer by crystallographic symmetry; PISA analysis of assemblies
molecule,measurement,setting,value
O=C(O)CCC(=O)C(=O)O [2-oxoglutarate],"UV/Vis enzyme kinetics (Km, value in supplement); turned over in crystallo to in",[1],"the Km values for ThDP, 2-oxoglutarate and isochorismate and kcat were determined"
"O=C(O)c1cc(O)c2ccccc2c1O [DHNA, 1,4-dihydroxy-2-naphthoic acid]",inhibition at 12.5 µM,[2],34%
B1,stoichiometry N,[3],4
